Results reported in patent US20160046618A1, “Cyclopropyl Fused Thiazin-2-Amine Compounds as Beta-Secretase Inhibitors and Methods of Use” (AMGEN INC., priority 2014, published 2016).

Key:
[1] = target: human recombinant BACE1 (Homo sapiens (Human), UniProt P56817); experiment: In vitro enzymatic BACE1 FRET assay; format: biochemical; details: read-out: IC50 IP (μM) BACE1 enzyme
Summary of the method: (§1)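 Read-out: dequenched fluorescence, excitation 488 nm, emission 590 nm, after proteolysis of a quenched peptide spanning the BACE cleavage site. Substrate at 50 nM, 1 h incubation, termination by Tris addition to neutral pH.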

[2] = target: human recombinant BACE2 (Homo sapiens (Human), UniProt Q9Y5Z0); experiment: In vitro enzymatic BACE2 FRET assay; format: biochemical; details: read-out: IC50 IP (μM) BACE2 enzyme
Summary of the method: as §1

[3] = test system: Aβ40 in conditioned medium of cells stably expressing Amyloid Precursor Protein (APP); experiment: In vitro BACE-1 cell-based assay (Aβ40 sandwich ELISA); details: read-out: IC50 IP (μM) BACE1 cell
Summary of the method: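 Read-out: time-resolved fluorescence (Streptavidin-Europium) of Aβ40 captured by pAb40 and detected with biotinylated 6E10 from supernatants of APP-stable cells. Cells were exposed to compound for 24 h, 10-point dose response, top dose 100 μM or 10 μM, 0.1% DMSO. IC50 fitted to percent of control.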

[4] = target: Recombinant Cat D (Homo sapiens (Human), UniProt P07339); experiment: In vitro enzymatic Cathepsin D (Cat D) FRET assay; format: biochemical; details: read-out: IC50 IP (μM) CatD
Summary of the method: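 Recombinant Cat D expressed in CHO cells, assayed in 0.05 M citrate pH 3.5 with 5 mM CHAPS and 10% DMSO final. Reaction started with 20 nM FRET peptide substrate, incubated one hour, then stopped by Tris buffer to neutral pH; fluorescence read at ex 500/em 580 nm.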

human recombinant BACE1, sequence (P56817 46-501): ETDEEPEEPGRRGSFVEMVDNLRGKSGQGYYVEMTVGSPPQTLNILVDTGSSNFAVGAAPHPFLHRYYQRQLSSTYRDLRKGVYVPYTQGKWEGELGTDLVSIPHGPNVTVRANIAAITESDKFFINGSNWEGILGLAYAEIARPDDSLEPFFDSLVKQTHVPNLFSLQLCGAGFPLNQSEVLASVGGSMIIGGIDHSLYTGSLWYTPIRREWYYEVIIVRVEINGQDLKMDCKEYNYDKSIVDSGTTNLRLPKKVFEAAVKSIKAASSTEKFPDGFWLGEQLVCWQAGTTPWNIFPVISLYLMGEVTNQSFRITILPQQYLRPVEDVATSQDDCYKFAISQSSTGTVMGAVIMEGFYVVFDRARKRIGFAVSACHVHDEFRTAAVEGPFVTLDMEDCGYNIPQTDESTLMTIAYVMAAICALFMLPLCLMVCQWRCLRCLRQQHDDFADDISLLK
Recombinant Cat D, sequence (P07339 65-412): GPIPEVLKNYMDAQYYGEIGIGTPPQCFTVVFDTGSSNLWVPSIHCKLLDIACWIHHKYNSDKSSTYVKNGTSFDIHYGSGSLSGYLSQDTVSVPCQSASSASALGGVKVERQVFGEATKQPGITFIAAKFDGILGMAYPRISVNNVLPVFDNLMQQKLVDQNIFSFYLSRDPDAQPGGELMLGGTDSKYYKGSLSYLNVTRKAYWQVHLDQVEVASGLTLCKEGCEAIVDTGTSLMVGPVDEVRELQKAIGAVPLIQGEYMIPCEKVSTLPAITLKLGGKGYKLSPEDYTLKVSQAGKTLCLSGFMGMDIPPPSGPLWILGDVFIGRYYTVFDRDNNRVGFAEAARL
human recombinant BACE2, sequence (Q9Y5Z0 63-518): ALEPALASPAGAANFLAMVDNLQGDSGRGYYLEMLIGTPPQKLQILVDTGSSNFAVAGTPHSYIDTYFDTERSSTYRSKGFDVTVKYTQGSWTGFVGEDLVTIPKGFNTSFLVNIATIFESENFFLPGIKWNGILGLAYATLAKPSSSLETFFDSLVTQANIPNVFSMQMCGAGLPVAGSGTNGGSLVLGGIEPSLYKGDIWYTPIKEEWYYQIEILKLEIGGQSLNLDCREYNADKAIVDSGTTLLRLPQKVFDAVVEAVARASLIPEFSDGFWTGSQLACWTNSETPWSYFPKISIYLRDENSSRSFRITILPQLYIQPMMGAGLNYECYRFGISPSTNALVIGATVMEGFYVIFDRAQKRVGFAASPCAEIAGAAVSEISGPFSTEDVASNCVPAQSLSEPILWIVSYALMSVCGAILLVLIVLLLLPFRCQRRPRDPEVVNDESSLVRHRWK

COCCOc1cnc2c(Nc3ccc(F)c([C@@]4(CF)N=C(N)S[C@@]5(CF)C[C@H]54)c3)nccc2n1 [Example 635, N-(3-((1S,5S,6S)-3-amino-1,5-bis(fluoromethyl)-2-thia-4-azabicyclo[4.1.0]hept-3-en-5-yl)-4-fluorophenyl)-2-(2-methoxyethoxy)pyrido[3,4-b]pyrazin-5-amine]
IC50 [1]: 0.00832 µM | IC50 [2]: 0.192 µM | IC50 [3]: 0.0208 µM | IC50 [4]: > 400 µM

C[C@]1(c2cc(Nc3ncnc4cc(F)cnc34)cc(F)c2F)N=C(N)S[C@H]2C[C@H]21 [Example 636, (1S,5S,6S)-5-(2,3-difluoro-5-((7-fluoropyrido[3,2-d]pyrimidin-4-yl)amino)phenyl)-5-methyl-2-thia-4-azabicyclo[4.1.0]hept-3-en-3-amine]
IC50 [1]: 0.0918 µM | IC50 [2]: 0.0298 µM | IC50 [3]: 0.411 µM | IC50 [4]: 996 µM

C[C@]1(c2cc(NC(=O)c3ccc(Cl)cn3)cnc2F)N=C(N)S[C@H]2C[C@H]21 [Example 637, N-(5-((1S,5S,6S)-3-Amino-5-methyl-2-thia-4-azabicyclo[4.1.0]hept-3-en-5-yl)-6-fluoropyridin-3-yl)-5-chloropicolinamide]
IC50 [1]: 0.0213 µM | IC50 [2]: 0.00261 µM | IC50 [3]: 0.0121 µM | IC50 [4]: > 400 µM

C[C@]1(c2cc(Nc3nccc4[nH]c(=O)cnc34)cnc2F)N=C(N)S[C@H]2C[C@H]21 [Example 638, 5-((5-((1S,5S,6S)-3-amino-5-methyl-2-thia-4-azabicyclo[4.1.0]hept-3-en-5-yl)-6-fluoropyridin-3-yl)amino)pyrido[3,4-b]pyrazin-2(1H)-one]
IC50 [1]: 0.0625 µM | IC50 [2]: 0.0314 µM | IC50 [3]: 0.0517 µM | IC50 [4]: > 400 µM

C#CCOc1cnc2c(Nc3cnc(F)c([C@@]4(C)N=C(N)S[C@H]5C[C@H]54)c3)nccc2n1 [Example 639, (1S,5S,6S)-5-(2-fluoro-5-((2-(prop-2-yn-1-yloxy)pyrido[3,4-b]pyrazin-5-yl)amino)pyridin-3-yl)-5-methyl-2-thia-4-azabicyclo[4.1.0]hept-3-en-3-amine]
IC50 [1]: 0.00157 µM | IC50 [2]: 0.0401 µM | IC50 [3]: 0.00213 µM | IC50 [4]: 381 µM

C[C@]1(c2cc(Nc3nccc4cc(C#N)cnc34)cnc2F)N=C(N)S[C@H]2C[C@H]21 [Example 641, 8-((5-((1S,5S,6S)-3-amino-5-methyl-2-thia-4-azabicyclo[4.1.0]hept-3-en-5-yl)-6-fluoro-3-pyridinyl)amino)-1,7-naphthyridine-3-carbonitrile]
IC50 [1]: 0.0188 µM | IC50 [2]: 0.00815 µM | IC50 [3]: 0.00799 µM | IC50 [4]: 1430 µM

Cc1cc(OCc2ncco2)cnc1C(=O)Nc1ccc(F)c([C@@]2(C)N=C(N)S[C@@]3(C(F)F)C[C@@H]23)c1 [Example 642, N-(3-((1S,5S,6S)-3-amino-1-(difluoromethyl)-5-methyl-2-thia-4-azabicyclo[4.1.0]hept-3-en-5-yl)-4-fluorophenyl)-3-methyl-5-(1,3-oxazol-2-ylmethoxy)-2-pyridinecarboxamide]
IC50 [1]: 0.00642 µM | IC50 [2]: 0.114 µM | IC50 [3]: 0.0351 µM | IC50 [4]: 434 µM

Cc1cc(OCc2ncco2)cnc1C(=O)Nc1cc(F)c(F)c([C@@]2(C)N=C(N)S[C@@]3(C(F)F)C[C@@H]23)c1 [Example 643, N-(3-((1S,5S,6S)-3-amino-1-(difluoromethyl)-5-methyl-2-thia-4-azabicyclo[4.1.0]hept-3-en-5-yl)-4,5-difluorophenyl)-3-methyl-5-(1,3-oxazol-2-ylmethoxy)-2-pyridinecarboxamide]
IC50 [1]: 0.00246 µM | IC50 [2]: 0.134 µM | IC50 [3]: 0.0328 µM | IC50 [4]: 751 µM

COC[C@]12C[C@H]1[C@@](C)(c1cc(NC(=O)c3ncc(OCc4ncco4)cc3C)ccc1F)N=C(N)S2 [Example 644, N-(3-((1S,5S,6S)-3-amino-1-(methoxymethyl)-5-methyl-2-thia-4-azabicyclo[4.1.0]hept-3-en-5-yl)-4-fluorophenyl)-3-methyl-5-(1,3-oxazol-2-ylmethoxy)-2-pyridinecarboxamide]
IC50 [1]: 0.014 µM | IC50 [2]: 0.207 µM | IC50 [3]: 0.0137 µM | IC50 [4]: > 400 µM

COC[C@]12C[C@H]1[C@@](C)(c1cc(NC(=O)c3ncc(OCc4ncco4)cc3C)cc(F)c1F)N=C(N)S2 [Example 646, N-(3-((1S,5S,6S)-3-amino-1-(methoxymethyl)-5-methyl-2-thia-4-azabicyclo[4.1.0]hept-3-en-5-yl)-4,5-difluorophenyl)-3-methyl-5-(1,3-oxazol-2-ylmethoxy)-2-pyridinecarboxamide]
IC50 [1]: 0.00656 µM | IC50 [2]: 0.211 µM | IC50 [3]: 0.013 µM | IC50 [4]: 865 µM

C#C[C@H](C)Oc1cnc(C(=O)Nc2cc(F)c(F)c([C@@]3(C)N=C(N)S[C@@]4(C(F)F)C[C@@H]34)c2)c(C)c1 [Example 647, N-(3-((1S,5S,6S)-3-amino-1-(difluoromethyl)-5-methyl-2-thia-4-azabicyclo[4.1.0]hept-3-en-5-yl)-4,5-difluorophenyl)-3-methyl-5-(((1S)-1-methyl-2-propyn-1-yl)oxy)-2-pyridinecarboxamide]
IC50 [1]: 0.0236 µM | IC50 [2]: 0.342 µM | IC50 [3]: 0.259 µM | IC50 [4]: 389 µM

C#C[C@H](C)Oc1cnc(C(=O)Nc2ccc(F)c([C@@]3(C)N=C(N)S[C@@]4(COC)C[C@H]43)c2)c(C)c1 [Example 649, N-(3-((1S,5S,6S)-3-amino-1-(methoxymethyl)-5-methyl-2-thia-4-azabicyclo[4.1.0]hept-3-en-5-yl)-4-fluorophenyl)-3-methyl-5-(((1S)-1-methyl-2-propyn-1-yl)oxy)-2-pyridinecarboxamide]
IC50 [1]: 0.0646 µM | IC50 [2]: 0.284 µM | IC50 [3]: 0.131 µM | IC50 [4]: 803 µM

C#C[C@H](C)Oc1cnc(C(=O)Nc2cc(F)c(F)c([C@@]3(C)N=C(N)S[C@@]4(COC)C[C@H]43)c2)c(C)c1 [Example 650, N-(3-((1S,5S,6S)-3-amino-1-(methoxymethyl)-5-methyl-2-thia-4-azabicyclo[4.1.0]hept-3-en-5-yl)-4,5-difluorophenyl)-3-methyl-5-(((1S)-1-methyl-2-propyn-1-yl)oxy)-2-pyridinecarboxamide]
IC50 [1]: 0.0389 µM | IC50 [2]: 0.556 µM | IC50 [3]: 0.344 µM | IC50 [4]: 777 µM

C#C[C@H](C)Oc1cnc(C(=O)Nc2ccc(F)c([C@@]3(C)N=C(N)S[C@@]4(CF)C[C@H]43)c2)c(C)c1 [Example 651, N-(3-((1S,5S,6S)-3-amino-1-(fluoromethyl)-5-methyl-2-thia-4-azabicyclo[4.1.0]hept-3-en-5-yl)-4-fluorophenyl)-3-methyl-5-(((1S)-1-methyl-2-propyn-1-yl)oxy)-2-pyridinecarboxamide]
IC50 [1]: 0.0589 µM | IC50 [2]: 0.397 µM | IC50 [3]: 0.139 µM | IC50 [4]: 1030 µM

Cc1cc(OCc2ncco2)cnc1C(=O)Nc1ccc(F)c([C@@]2(C)N=C(N)S[C@@]3(CF)C[C@H]32)c1 [Example 652, N-(3-((1S,5S,6S)-3-amino-1-(fluoromethyl)-5-methyl-2-thia-4-azabicyclo[4.1.0]hept-3-en-5-yl)-4-fluorophenyl)-3-methyl-5-(1,3-oxazol-2-ylmethoxy)-2-pyridinecarboxamide]
IC50 [1]: 0.00756 µM | IC50 [2]: 0.142 µM | IC50 [3]: 0.0256 µM | IC50 [4]: > 400 µM
